Data published in the NIST ThermoML archive (doi:10.1021/je700266n).
± gives the expanded uncertainty stated by the source.

Experiment: xn = mol fraction of the nth substance listed
Conditions: 101 kPa, Liquid

CCCCn1cc[n+](C)c1.F[P-](F)(F)(F)(F)F [1-butyl-3-methylimidazolium hexafluorophosphate] + CC#N
mass density [kg/m3]
Conditions | x1 = 0.1 | x1 = 0.1997 | x1 = 0.3001 | x1 = 0.4002 | x1 = 0.4995 | x1 = 0.5996 | x1 = 0.7001 | x1 = 0.8 | x1 = 0.8992 | x1 = 1
293.15 K | 974.06 ± 0.42 | 1089.47 ± 0.51 | 1167.16 ± 0.74 | 1221.32 ± 0.96 | 1261.57 ± 1.2 | 1293.48 ± 1.4 | 1318.51 ± 1.7 | 1339.25 ± 1.9 | 1356.81 ± 2.2 | 1371.57 ± 2.6
298.15 K | 969.05 ± 0.42 | 1084.37 ± 0.5 | 1162.48 ± 0.73 | 1216.77 ± 0.95 | 1257.1 ± 1.2 | 1289.08 ± 1.4 | 1314.15 ± 1.7 | 1334.92 ± 1.9 | 1352.54 ± 2.2 | 1367.22 ± 2.6
303.15 K | 963.9 ± 0.43 | 1079.44 ± 0.48 | 1157.73 ± 0.71 | 1212.1 ± 0.93 | 1252.55 ± 1.2 | 1284.55 ± 1.4 | 1309.69 ± 1.6 | 1330.47 ± 1.9 | 1348.19 ± 2.2 | 1362.86 ± 2.5
308.15 K | 958.79 ± 0.44 | 1074.57 ± 0.47 | 1153.01 ± 0.7 | 1207.52 ± 0.92 | 1248.07 ± 1.1 | 1280.12 ± 1.4 | 1305.51 ± 1.6 | 1326.23 ± 1.9 | 1343.83 ± 2.2 | 1358.56 ± 2.5
313.15 K | 953.96 ± 0.45 | 1070.04 ± 0.46 | 1148.67 ± 0.69 | 1203.29 ± 0.91 | 1243.97 ± 1.1 | 1276.12 ± 1.4 | 1301.33 ± 1.6 | 1322.21 ± 1.9 | 1339.74 ± 2.2 | 1354.3 ± 2.5
323.15 K | 943.95 ± 0.46 | 1060.53 ± 0.44 | 1139.57 ± 0.67 | 1194.5 ± 0.9 | 1235.37 ± 1.1 | 1267.65 ± 1.3 | 1292.68 ± 1.6 | 1313.73 ± 1.9 | 1331.33 ± 2.1 | 1345.98 ± 2.5
333.15 K | 933.35 ± 0.48 | 1050.42 ± 0.42 | 1129.8 ± 0.6 | 1184.99 ± 0.86 | 1226.09 ± 1.1 | 1258.64 ± 1.3 | 1283.91 ± 1.6 | 1305.14 ± 1.8 | 1323.02 ± 2.1 | 1337.7 ± 2.4
343.15 K | 923.24 ± 0.51 | 1040.99 ± 0.4 | 1120.72 ± 0.62 | 1176.43 ± 0.84 | 1217.82 ± 1.1 | 1250.62 ± 1.3 | 1276.41 ± 1.5 | 1297.84 ± 1.8 | 1315.94 ± 2.1 | 1330.76 ± 2.4
